# Measured values from paper PMC9369794 (Molecules, 2022).
# Columns and labels:
# [1] = TEAC assay using ABTS radical; settings: 6 min, ratio of slopes to trolox (melatonin dissolved in EtOH); for TEAC from DMSO: stock in DMSO diluted with PBS pH 7.4, 37 °C; for TEAC from THF: stock in THF diluted with PBS pH 7.4, 37 °C
# Description: This method uses a redox reaction between ABTS^•+ radical cation and the examined antioxidants, which act as the reducing agents. […] As the carotenoids and the conjugates are poorly soluble in water, they were dissolved first either in small amounts of freshly distilled tetrahydrofuran (THF) or in dimethylsulfoxide (DMSO), and these stock solutions were diluted with phosphate-buffered saline (PBS) to the final nominal concentration.
# The TEAC values were determined in isotonic phosphate buffer of pH 7.4. The buffer solution was made by dissolving 9.55 g of DPBS powder in distilled water to form 1L of solution (composition: 0.138 M NaCl, 0.0027 M KCl, 0.0081 M Na2HPO4, 0.0015 M KH2PO4). The assay was performed according to a literature process with slight modifications. The ABTS^•+ radical cation was produced by reacting 7 mM 2,2′-azino-bis(3-ethylbenzothiazoline-6-sulfonic acid) and 2.45 mM potassium persulfate in water. The stock ABTS^•+ solution was prepared 12–16 h before the experiments, and stored at room temperature in dark. The absorbance of the ABTS^•+ solution was set to 0.70 ± 0.05 at 734 nm by a ca. 100-fold dilution with phosphate-buffered saline (PBS). […] The stock solutions were diluted with PBS such that equal amounts of the diluted solutions were added to the ABTS^•+ reagent to obtain final antioxidants concentrations of 0.3125, 0.625, 1.25, 2.50, 3.75, 5 μM, respectively. In the blank (0 μM), the solutions of the antioxidants were substituted with THF or DMSO.
# The antioxidants were incubated with ABTS^•+ solution at 37 °C for 6 min. During the reaction of ABTS^•+ with the antioxidants the absorbance of the solution decreases. The percentage inhibition of absorbance at 734 nm was calculated as (A0 − Aantioxidant)/A0, where A0 is the absorbance of the ABTS^•+ solution and Aantioxidant is the absorbance measured after the addition of the antioxidant. The determinations were carried out at each concentration in triplicate. The calculated values were plotted against the final concentration of the antioxidants. The slopes of the curves were compared with that for trolox, the TEAC value is the ratio of the slopes for the antioxidant and for trolox.
# [2] = Hydrodynamic diameter and colloidal stability of aggregates by dynamic light scattering; format: physicochemical; settings: for mean size (hydrodynamic diameter) / zeta potential: 37 °C; for PDI: sd^2/mean size^2
# Description: In contrary, all spectra gave a hypsochromic shift and loss of fine-structure when the DMSO solutions were diluted with PBS, which refers to the formation of H-type (card-pack) aggregates (Figures S1–S12). Since DMSO-containing aqueous systems are more suitable for biological studies, we examined these solution by dynamic light scattering (DLS) spectroscopy to gain more information about the particles. The concentrations of the examined solutions were the same as used in the ABTS/TEAC measurements (0.3125–5.00 μM, see next section).
# Size determination of aggregates and the colloidal stability of the sample dispersions were determined by dynamic light scattering measurements, where the hydrodynamic diameter of particles, and zeta potential values were collected. The number-weighted size distribution indicated one main peak in each case, the polydispersity index (PDI) was calculated as sd^2/mean size^2. For the particle size analysis Malvern Zetasizer Nano S instrument and for the zeta potential determination Malvern Zetasizer Nano Z instrument were used (Malvern Panalytical Ltd., Great Malvern, Worcestershire, UK). The measurements were carried out in autocorrelation mode, and the following parameters were kept constant: scattering angle 173°, attenuator 11 and its factor 0.0146, measurement position 4.65 mm. The concentrations of sample dispersions were between 0.3125 and 5 µM. The dispersion medium was PBS. Each samples was examined after 6 min incubation period at 37 °C.
# [3] = Study of aggregation by UV-Vis spectrophotometry; format: physicochemical; settings: for type of aggregates formed: from THF:aqueous solutions; for change of UV spectrum with increasing ratio of PBS: starting from THF solutions
# Description: It has been known for a long while that carotenoids or their derivatives can be prone to supramolecular organization in water or water-organic solvent mixtures. This behaviour is especially interesting because this higher organization can modulate or alter biological properties of carotenoids, as well [40]. A tendency to form supramolecular structures can be tested by recording the UV spectra in an organic solvent and increasing the ratio of water in the sample. […] We have some recent experience of such behaviour of carotenoid-flavonoid conjugates.
# All of our adducts were tested with the method above using tetrahydrofurane (THF) or dimethylsulfoxide (DMSO) with increasing ratio of phosphate-buffered saline (PBS), which was the medium of the antioxidant measurements. […]
# 1. Study of Aggregation by UV-Vis Spectrophotometry
# Starting from THF solutions: each conjugate was dissolved in freshly distilled THF and the solutions were diluted
# either with THF or THF-PBS mixtures to obain final solutions of identical carotenoid concentration. […]
# Figure S1. UV-spectra of 8’-apo-β-carotenol succinate ( 6) ( a) in THF and in THF-PBS mixtures ( 1:1 , 1:3); (b) in DMSO
# Figure S2. UV-spectra of zeaxanthin bissuccinate ( 7) ( a) in THF and in THF-PBS mixtures ( 1:1 , 1:3); (b) in DMSO and
# Figure S3. UV-spectra of zeaxanthin monosuccinate ( 11) ( a) in THF and in THF-PBS mixtures ( 1:1 , 1:3); (b) in DMSO […]
# [4] = FRAP assay for the antioxidant capacity; parameters: key to FRAP: slope of concentration-absorbance line divided by Trolox slope; settings: stock in THF, acetate buffer pH 3.0, 37 °C, 15 min; ratio of slopes to trolox (melatonin in EtOH)
# Description: In the FRAP method the antioxidant reduces Fe^3+ to Fe^2+ in an acidic medium. These experiments were performed in an acetate buffer of pH 3.0, the stock solutions of the examined antioxidants were prepared in THF. The antioxidant capacities were compared to that of Trolox as a standard, just like in the ABTS assays.
# A modified literature process was used. The FRAP reagent should also be prepared freshly each day. 2,4,6-Tris(2-pyridyl)-s-triazin (TPTZ) was dissolved in a 200 mM HCl solution and diluted with water to get a final 40 mM HCl and 10 mM TPTZ concentration. For the preparation of the FRAP reagent 30 mL of 20 mM FeCl3 solution and 30 mL of 10 mM TPTZ solution were mixed, and 300 mL of 300 mM acetate buffer with pH 3.0 was added (a pH lower than usual was used to avoid the precipitation of the TPTZ). The FRAP reagent was incubated at 37 °C for 15 min. 150 μL of antioxidant dissolved in THF was mixed with 2.85 mL FRAP reagent solution, and incubated at 37 °C for 15 min in dark. Measurements were carried out at each antioxidant concentration (0, 7.5; 10; 12.5; 15; 17.5 μM final concentration) in triplicate. In the 0 μM solution the antioxidant solution was substituted with acetate buffer (pH 3.0). The FRAP was determined at 600 nm: the absorbance values were plotted as a function of concentration of the sample compounds and that of Trolox for the standard reference data. The FRAP values were calculated as in the ABTS assays, i.e., the slope of the concentration-absorbance lines for the carotenoid derivatives was divided by that for the trolox.
# [5] = 0.3125 μM in PBS from DMSO stock
# [6] = 0.625 μM in PBS from DMSO stock
Structure (SMILES),TEAC from THF [1],melting point [°C],"mean size (hydrodynamic diameter) [2, 5] [nm]","zeta potential [2, 5] [mV]",PDI ([2]; 0.3125 μM in PBS),"mean size (hydrodynamic diameter) [2, 6] [nm]","zeta potential [2, 6] [mV]",PDI ([2]; 0.625 μM in PBS),mean size (hydrodynamic diameter) ([2]; 1.25 μM in PBS from DMSO stock) [nm],zeta potential ([2]; 1.25 μM in PBS from DMSO stock) [mV],PDI ([2]; 1.25 μM in PBS),mean size (hydrodynamic diameter) ([2]; 2.5 μM in PBS from DMSO stock) [nm],zeta potential ([2]; 2.5 μM in PBS from DMSO stock) [mV],PDI ([2]; 2.5 μM in PBS),mean size (hydrodynamic diameter) ([2]; 3.75 μM in PBS from DMSO stock) [nm],zeta potential ([2]; 3.75 μM in PBS from DMSO stock) [mV],PDI ([2]; 3.75 μM in PBS),mean size (hydrodynamic diameter) ([2]; 5 μM in PBS from DMSO stock) [nm],zeta potential ([2]; 5 μM in PBS from DMSO stock) [mV],PDI ([2]; 5 μM in PBS),other results
"COc1ccc2[nH]cc(CCNC(=O)CNC(=O)CCC(=O)O[C@@H]3CC(C)=C(/C=C/C(C)=C/C=C/C(C)=C/C=C/C=C(C)/C=C/C=C(C)/C=C/C4=C(C)C[C@@H](O)CC4(C)C)C(C)(C)C3)c2c1 [Compound 13, Zeaxanthin-monomelatonin conjugate]",1.434,156 to 157,388.20,16.0,0.0336,551.20,15.4,0.0410,364.50,2.2,0.0270,638.90,2.2,0.0217,79.01,0.7,0.0112,565.30,1.1,0.0311,TEAC from DMSO [1]: 1.34; hydrodynamic diameter of the aggregates ([2]; over the concentrations 0.3125–5.00 μM): 400–600 nm; type of aggregates formed [3]: J-type (head-to-tail) aggregates; change of UV spectrum with increasing ratio of PBS [3]: bathochromic shift; FRAP [4]: 0.152
"COc1ccc2[nH]cc(CCNC(=O)CNC(=O)CCC(=O)O[C@@H]3CC(C)=C(/C=C/C(C)=C/C=C/C(C)=C/C=C/C=C(C)/C=C/C=C(C)/C=C/C4C(C)=C[C@@H](OC(=O)CCC(=O)NCC(=O)NCCc5c[nH]c6ccc(OC)cc56)CC4(C)C)C(C)(C)C3)c2c1 (some centres unmarked) [Compound 16, Lutein-bismelatonin conjugate]",2.933,123 to 124,131.20,−12.2,0.2022,51.10,−11.7,0.0673,142.50,−12.5,0.0108,91.19,−27.5,0.1585,39.28,−1.4,0.1229,43.14,−0.5,0.0264,TEAC from DMSO [1]: 2.40; type of aggregates formed [3]: J-type (head-to-tail) aggregates; change of UV spectrum with increasing ratio of PBS [3]: bathochromic shift; FRAP [4]: 0.460
"COc1ccc2[nH]cc(CCNC(=O)CNC(=O)CCC(=O)O[C@@H]3CC(C)=C(/C=C/C(C)=C/C=C/C(C)=C/C=C/C=C(C)/C=C/C=C(C)/C=C/C4=C(C)CCCC4(C)C)C(C)(C)C3)c2c1 [Compound 15, Cryptoxanthin-melatonin conjugate]",1.777,153 to 154,29.79,−13.4,0.0356,31.22,−23.5,0.1230,74.91,−20.8,0.1051,305.10,−20.4,0.1649,826.80,−11.8,0.0840,615.10,−15.7,0.0992,type of aggregates formed [3]: J-type (head-to-tail) aggregates; change of UV spectrum with increasing ratio of PBS [3]: bathochromic shift; FRAP [4]: 0.154
"COc1ccc2[nH]cc(CCNC(=O)CNC(=O)CCC(=O)OC/C(C)=C/C=C/C(C)=C/C=C/C=C(C)/C=C/C=C(C)/C=C/C3=C(C)CCCC3(C)C)c2c1 [Compound 18, 8′-Apo-β-carotenol-melatonin conjugate]",2.891,123 to 124,148.60,−22.0,0.0199,212.00,−22.8,0.0397,127.50,−24.5,0.0726,93.29,−29.5,0.1229,182.80,−31.4,0.1662,201.10,−37.5,0.1788,TEAC from DMSO [1]: 3.00; change of UV spectrum with increasing ratio of PBS [3]: did not cause much change; FRAP [4]: 0.123
